Experimental data published in patent US7968522B2, “Treatment and prophylaxis of sepsis and septic shock” (Polytechnic Institute of NYU, priority 2003, dated 2011).
Entries after “also recorded” stand apart in the source; their conditions may differ.

Test system: RAW 264.7 cells
Test: LPS-induced NO production (nitrite, Griess reaction) in mouse macrophages
Assay type: cell-based
Conditions: for effect on LPS-induced NO production: varying concentrations, added 1.5 h before, after or simultaneously with LPS
Description: As nitric oxide production is a useful marker of macrophage response to bacterial LPS, the in vitro model system is a valuable tool for examining the modulating effects of sophorolipids on LPS-induced macrophage responses under controlled conditions. Mouse macrophages (RAW 264.7, ATCC) were incubated in the presence of LPS (Salmonella typhimurium, Sigma #6511) (50 ng/ml, an optimal dose for inducing NO production), and varying concentrations of sophorolipids (SL, natural mixture), sophorolipid diethyl ester (E), and corresponding sophorolipid diacetate (K). Sophorolipids were added 1.5 hours before, 1.5 hours after, or simultaneously with LPS. Aliquots of culture supernatants were collected after 5 days and NO content was determined by measuring nitrite (modified Griess reaction). Briefly, triplicate 50 μl aliquots of the culture supernatant were mixed in wells of a 96-well microtiter plate with 100 μl of Griess reagent containing a 1:1 (vol/vol) mixture of 1% (wt/vol) sulfanilamide in 30% acetic acid and 0.5% (wt/vol) of N-(-1-Naphthyl)ethylenediamine dihydrochloride in 60% acetic acid. Chromophore generated by the reaction with nitrite was detected spectrophotometrically (550 nm) using a microtiterplate reader (ELx 800, BioTek Instruments, Winooski, Vt.). The concentration of nitrite was calculated by using calibration with known concentrations of NaNO2.
This in vitro model system made it possible to examine in detail the effects of sophorolipids on LPS induced NO production as a marker of the acute inflammatory pathway that leads to septic shock in vivo. NO production appeared to depend on the sequence of addition of sophorolipids relative to LPS. The in vitro effects were most pronounced when sophorolipids were introduced either before or simultaneously with LPS.

SMILES | rating of the potency of inhibitory activities on LPS induced NO production (RAW 264.7 cells, LPS 50 ng/ml) | effect on LPS-induced NO production | inhibition of LPS-induced NO production (plateau / maximum) (at 25 ng/ml, LPS 50 ng/ml, RAW 264.7 cells, supernatants after 5 days)
CCOC(=O)CCCCCCC/C=C\CCCCCCC(C)O[C@@H]1O[C@H](COC(C)=O)[C@@H](O)[C@H](O)[C@H]1O[C@@H]1O[C@H](COC(C)=O)[C@@H](O)[C@H](O)[C@H]1O (relative stereo) [K, Ethyl 17-L[(2′-O-β-D glucopyranosyl-β-D-glucopyranosyl)-oxy]-cis-9-octadecenoate 6′,6″-diacetate] | E>SL>K | inhibited LPS-induced NO production in a dose- and time-dependent manner | –
CCOC(=O)CCCCCCC/C=C\CCCCCCC(C)O[C@@H]1O[C@H](CO)[C@@H](O)[C@H](O)[C@H]1O[C@@H]1O[C@H](CO)[C@@H](O)[C@H](O)[C@H]1O (relative stereo) [E, Ethyl 17-L-[(2′-O-β-D-glucopyranosyl-β-D-glucopyranosyl)-oxy]-cis-9-octadecenoate] | E>SL>K; also recorded: least inhibitory and the most variable effects | inhibited LPS-induced NO production in a dose- and time-dependent manner | 60-65%
